Laboratory results reported in EP0393786B1, “New retro-inverse, one- or more bond bearing analogues of thymopentin, a method for synthesizing the same and their employment for the preparation of pharmaceutical” (SCLAVO S.p.A., priority 1989, dated 1990).

Experiments:
[1] = tested on: lymphocytes which secrete antibodies (PFC); assay: Hemolysis plate test (PFC) according to Jerne and Nordin, in vivo immunostimulating activity; set-up: species or system inbred C3H/HeNCrlBr male mice; settings: 100 ng of peptide p.o. two hours after SRBC i.v.; spleen lymphocytes after four days; IgM PFC
Method: In particular, the so-called "hemolysis plate test" has been employed (PFC) performed according to the procedure disclosed by Jerne and Nordin.
Said test is carried out by administering through intravenous route to inbred C3H/HeNCrlBr male mice (Calco-Italia) aged 10-12 weeks and of body weight about 25 g, a pyrogen-free saline solution (0.2 ml) containing 1-2 x 10⁸ blood red cells of ram (SRBC). After two hours, groups of three mice each are treated p.o. (intragastric intubation) with 0.2 ml of saline solution (control) or with 0.2 ml of saline solution containing 100 ng of the peptide under test. After four days, the mice are sacrificed and the spleens are drawn and mechanically disrupted to separate the lymphocytes. The lymphocytes so isolated are washed with minimal soil containing Earle salts (MEM) (3 x 15 ml) and then resuspended into the same soil (1 ml) at a final concentration of 150,000 cells. Each cell suspension (0.1 ml) is then diluted 1/100 with MEM soil, and 100 µl of each dilution is added in double to wells of microplates containing 25 µl of MEM soil, 25 µl of a 10 % solution of SRBC antigens and 25 µl of guinea-pig complement at a final dilution of 1/64. The whole suspension is immediately transferred by capillarity from each well onto overlapped glass holder-slides. Such slides, with their edges sealed by means of paraffin, are then put for incubation into a thermostatic chamber at 37°C for one hour.
At the end of such time, the direct hemolysis plates are counted by means of a light-contrast viewer, such plates pointing out the number of lymphocytes which secrete antibodies (PFC). The antibodies so put into evidence are of the class of the IgM's, which are proper of the primary antibody response.

[2] = Stability to enzymic hydrolysis in heparinized human plasma (half-life); settings: for half-life, times as much as that of thymopentin: relative to thymopentin
Method: The incubations were carried out at 37°C, and the drawings of the plasmatic mixtures, each one of 100 µl, were stopped at the various times by addition of trifluoroacetic acid in the ratio of 10%, with successive centrifugation at 10,000 x g, for five minutes. A portion of the supernatant is subjected to chromatography under conditions suitable to put into evidence the change in concentration of the peptide tested at the various time.

| Compound | half-life ([2]; human) [min] | half-life ([2]; test parallel to thymopentin) [min] | half-life, times as much as that of thymopentin [2] | Plate formation % control [1] [% control] |
| --- | --- | --- | --- | --- |
| CC(C)[C@@H](NC(=O)C(Cc1ccc(O)cc1)C(=O)O)NC(=O)[C@H](CC(=O)O)NC(=O)C(CCCCN)C(=O)N[C@@H](N)CCCNC(=N)N (stereo partly drawn) [Example 1, CH₃COOH.H-g-Arg-(R,S)mLys-Asp-gVal-(R,S)mTyr-OH] | > 360 | > 360 |  | 196 |
| CC(C)[C@H](NC(=O)[C@H](CC(=O)O)NC(=O)C(CCCCN)C(=O)NC(N)CCCNC(=N)N)C(=O)N[C@@H](Cc1ccc(O)cc1)C(=O)O (some centres unmarked) [reference compound] | 22 |  |  |  |
| H-Arg-Lys-Asp-Val-Tyr-OH [TP5, reference compound] |  |  |  | 137 |

The next lines start with results.

| half-life ([2]; human) [min] | half-life ([2]; test parallel to thymopentin) [min] | half-life, times as much as that of thymopentin [2] | Compound | Plate formation % control [1] [% control] |
| --- | --- | --- | --- | --- |
| 10 |  | about 7 times | CC(C)C(C(=O)N[C@H](CC(=O)O)NC(=O)[C@H](CCCCN)NC(=O)[C@@H](N)CCCNC(=N)N)C(=O)N[C@@H](Cc1ccc(O)cc1)C(=O)O (stereo partly drawn) [Example 2, CH₃COOH.H-Arg-Lys-gAsp-(R,S)mVal-Tyr-OH] | 132 |
| 2.5 |  | about 2 times | CC(C)[C@@H](NC(=O)C(Cc1ccc(O)cc1)C(=O)O)NC(=O)[C@H](CC(=O)O)NC(=O)[C@H](CCCCN)NC(=O)[C@@H](N)CCCNC(=N)N (stereo partly drawn) [Example 3, [gVal⁴,(R,S)mTyr⁵]TP5] | 190 |
